Measurements published in the NIST ThermoML archive (doi:10.1016/j.jct.2015.06.036).
Numbers after ± are expanded uncertainties.

Assay: xn = mol fraction of the nth substance listed
Details: 101 kPa, Liquid; for viscosity: Falling or rolling sphere viscometry; for speed of sound: Sing-around technique in a fixed-path interferometer; for mass density: Vibrating tube method

CCn1cc[n+](C)c1.F[B-](F)(F)F [1-ethyl-3-methylimidazolium tetrafluoroborate] + CO
Details | mass density [kg/m3] | speed of sound [m/s] | viscosity [mPa·s]
278.15 K, x1 = 0.0499 | 896.8 ± 0.4 | 1233 ± 2 | 0.998 ± 0.041
278.15 K, x1 = 0.0998 | 965.1 ± 0.3 | 1283 ± 2 | 1.43 ± 0.06
278.15 K, x1 = 0.1498 | 1019.5 ± 0.3 | 1336 ± 2 | 1.92 ± 0.08
278.15 K, x1 = 0.1998 | 1062.4 ± 0.3 | 1384 ± 2 | 2.52 ± 0.1
278.15 K, x1 = 0.3002 | 1127.9 ± 0.3 | 1465 ± 2 | 4.08 ± 0.17
278.15 K, x1 = 0.4004 | 1174.8 ± 0.4 | 1523 ± 2 | 6.45 ± 0.26
278.15 K, x1 = 0.5001 | 1209.6 ± 0.5 | 1565 ± 2 | 9.84 ± 0.4
278.15 K, x1 = 0.6004 | 1237.2 ± 0.6 | 1597 ± 3 | 15.3 ± 0.6
278.15 K, x1 = 0.6987 | 1258.7 ± 0.8 | 1623 ± 3 | 24.6 ± 1
278.15 K, x1 = 0.8005 | 1277.4 ± 1 | 1644 ± 3 | 38.9 ± 1.6
278.15 K, x1 = 0.8486 | 1284.8 ± 1.1 | 1653 ± 3 | 47.9 ± 2
278.15 K, x1 = 0.8987 | 1292.3 ± 1.2 | 1661 ± 3 | 61.5 ± 2.6
278.15 K, x1 = 0.9476 | 1298.6 ± 1.4 | 1669 ± 3 | 76.5 ± 3.3
278.15 K, x1 = 1 | 1305.3 ± 1.5 | 1677 ± 3 | 101 ± 5
288.15 K, x1 = 0.0499 | 887.8 ± 0.4 | 1204 ± 2 | 0.848 ± 0.035
288.15 K, x1 = 0.0998 | 956.3 ± 0.3 | 1259 ± 2 | 1.19 ± 0.05
288.15 K, x1 = 0.1498 | 1010.9 ± 0.3 | 1313 ± 2 | 1.57 ± 0.06
288.15 K, x1 = 0.1998 | 1053.8 ± 0.3 | 1361 ± 2 | 2.03 ± 0.08
288.15 K, x1 = 0.3002 | 1119.4 ± 0.3 | 1441 ± 2 | 3.24 ± 0.13
288.15 K, x1 = 0.4004 | 1166.5 ± 0.3 | 1499 ± 2 | 5.01 ± 0.21
288.15 K, x1 = 0.5001 | 1201.4 ± 0.4 | 1540 ± 2 | 7.49 ± 0.31
288.15 K, x1 = 0.6004 | 1229.1 ± 0.6 | 1572 ± 3 | 11.3 ± 0.5
288.15 K, x1 = 0.6987 | 1250.7 ± 0.8 | 1598 ± 3 | 17.7 ± 0.7
288.15 K, x1 = 0.8005 | 1269.5 ± 1 | 1619 ± 3 | 26.8 ± 1.1
288.15 K, x1 = 0.8486 | 1276.9 ± 1.1 | 1628 ± 3 | 32.3 ± 1.3
288.15 K, x1 = 0.8987 | 1284.5 ± 1.2 | 1636 ± 3 | 40.2 ± 1.7
288.15 K, x1 = 0.9476 | 1290.9 ± 1.4 | 1644 ± 3 | 48.7 ± 2
288.15 K, x1 = 1 | 1297.6 ± 1.5 | 1653 ± 3 | 62 ± 2.6
298.15 K, x1 = 0.0499 | 878.7 ± 0.4 | 1176 ± 2 | 0.732 ± 0.03
298.15 K, x1 = 0.0998 | 947.5 ± 0.3 | 1233 ± 2 | 1.01 ± 0.04
298.15 K, x1 = 0.1498 | 1002.2 ± 0.3 | 1289 ± 2 | 1.32 ± 0.05
298.15 K, x1 = 0.1998 | 1045.3 ± 0.3 | 1337 ± 2 | 1.69 ± 0.07
298.15 K, x1 = 0.3002 | 1111 ± 0.3 | 1418 ± 2 | 2.66 ± 0.11
298.15 K, x1 = 0.4004 | 1158.2 ± 0.3 | 1475 ± 2 | 4.03 ± 0.16
298.15 K, x1 = 0.5001 | 1193.3 ± 0.4 | 1516 ± 2 | 5.91 ± 0.24
298.15 K, x1 = 0.6004 | 1221.1 ± 0.6 | 1548 ± 3 | 8.69 ± 0.36
298.15 K, x1 = 0.6987 | 1242.8 ± 0.8 | 1575 ± 3 | 13.3 ± 0.6
298.15 K, x1 = 0.8005 | 1261.7 ± 1 | 1596 ± 3 | 19.5 ± 0.8
298.15 K, x1 = 0.8486 | 1269.2 ± 1.1 | 1605 ± 3 | 22.9 ± 1
298.15 K, x1 = 0.8987 | 1276.8 ± 1.2 | 1613 ± 3 | 28 ± 1.2
298.15 K, x1 = 0.9476 | 1283.2 ± 1.3 | 1621 ± 3 | 33.2 ± 1.4
298.15 K, x1 = 1 | 1290 ± 1.5 | 1629 ± 3 | 41 ± 1.7
308.15 K, x1 = 0.0499 | 869.6 ± 0.4 | 1147 ± 2 | 0.642 ± 0.026
308.15 K, x1 = 0.0998 | 938.7 ± 0.3 | 1208 ± 2 | 0.872 ± 0.035
308.15 K, x1 = 0.1498 | 993.6 ± 0.3 | 1265 ± 2 | 1.13 ± 0.05
308.15 K, x1 = 0.1998 | 1036.8 ± 0.3 | 1314 ± 2 | 1.44 ± 0.06
308.15 K, x1 = 0.3002 | 1102.7 ± 0.3 | 1394 ± 2 | 2.23 ± 0.09
308.15 K, x1 = 0.4004 | 1150 ± 0.3 | 1451 ± 2 | 3.33 ± 0.14
308.15 K, x1 = 0.5001 | 1185.3 ± 0.4 | 1493 ± 2 | 4.79 ± 0.2
308.15 K, x1 = 0.6004 | 1213.2 ± 0.6 | 1525 ± 3 | 6.91 ± 0.28
308.15 K, x1 = 0.6987 | 1235 ± 0.7 | 1551 ± 3 | 10.4 ± 0.4
308.15 K, x1 = 0.8005 | 1254 ± 1 | 1573 ± 3 | 14.9 ± 0.6
308.15 K, x1 = 0.8486 | 1261.5 ± 1.1 | 1581 ± 3 | 17.1 ± 0.7
308.15 K, x1 = 0.8987 | 1269.1 ± 1.2 | 1589 ± 3 | 20.5 ± 0.9
308.15 K, x1 = 0.9476 | 1275.6 ± 1.3 | 1598 ± 3 | 23.8 ± 1
308.15 K, x1 = 1 | 1282.4 ± 1.5 | 1606 ± 3 | 28.8 ± 1.2
318.15 K, x1 = 0.0499 | 860.5 ± 0.4 | 1119 ± 2 | 0.57 ± 0.023
318.15 K, x1 = 0.0998 | 929.8 ± 0.3 | 1182 ± 2 | 0.772 ± 0.031
318.15 K, x1 = 0.1498 | 984.9 ± 0.3 | 1241 ± 2 | 0.979 ± 0.04
318.15 K, x1 = 0.1998 | 1028.3 ± 0.3 | 1290 ± 2 | 1.24 ± 0.05
318.15 K, x1 = 0.3002 | 1094.4 ± 0.3 | 1371 ± 2 | 1.9 ± 0.08
318.15 K, x1 = 0.4004 | 1141.9 ± 0.3 | 1428 ± 2 | 2.81 ± 0.12
318.15 K, x1 = 0.5001 | 1177.3 ± 0.4 | 1470 ± 2 | 3.98 ± 0.16
318.15 K, x1 = 0.6004 | 1205.4 ± 0.6 | 1502 ± 3 | 5.65 ± 0.23
318.15 K, x1 = 0.6987 | 1227.2 ± 0.7 | 1528 ± 3 | 8.37 ± 0.35
318.15 K, x1 = 0.8005 | 1246.3 ± 0.9 | 1550 ± 3 | 11.7 ± 0.5
318.15 K, x1 = 0.8486 | 1253.9 ± 1.1 | 1559 ± 3 | 13.2 ± 0.6
318.15 K, x1 = 0.8987 | 1261.6 ± 1.2 | 1567 ± 3 | 15.7 ± 0.7
318.15 K, x1 = 0.9476 | 1268 ± 1.3 | 1575 ± 3 | 17.8 ± 0.7
318.15 K, x1 = 1 | 1274.9 ± 1.5 | 1583 ± 3 | 21.2 ± 0.9
